Data on nine molecules can be found in PMC5399792 (Nucleic Acids Research, 2017).

One data set deals with influenza B polymerase. Nature of the data set: Fluorescence anisotropy/polarization protein-RNA binding. The arrangement: species or system influenza B/Memphis/13/03. The note with it: for dissociation constant, polymerase + RNA (in words): each RNA separately. How it is done: Fluorescence spectroscopy was used to quantify protein–RNA interactions, employing either a plate reader or cuvette format. Using the cuvette, protein was successively added to FAM-Ex-5-labelled RNA (if not indicated otherwise) in binding buffer (50 mM HEPES/NaOH, 0.15 M NaCl, 10% (v/v) glycerol, 2 mM Tris(2-carboxyethyl)phosphine (TCEP), pH 7.4) at the concentrations indicated. After attaining equilibrium, total fluorescence intensity and fluorescence anisotropy were measured at T = 24°C with a fluorescence spectrometer (Photon Technology International) equipped with polarizers with excitation and emission wavelengths set to 495 and 515 nm, respectively. Total fluorescence intensity was corrected for the volume change due to addition of protein and the observed fluorescence anisotropy corrected for the change in fluorescence intensity according to Equation (1) ([17]): (1) where fb represents the fractional concentration of bound RNA, r the observed anisotropy, rf and rb the anisotropy of free and bound RNA, and If and Ib the fluorescence intensity of free and bound RNA, respectively. Using KaleidaGraph (Synergy Software), dissociation constants were derived by fitting the binding isotherms to a 1:1 binding model of RNA and protein according to Equation (2) (2) where fb represents the fractional concentration of bound RNA, L the total concentration of labelled RNA, P the concentration of protein and KD the dissociation constant.

The target of data set [1] is T1, influenza B polymerase initiating RNA synthesis at the vRNA promoter (vPol) (Influenza B virus, UniProt Q5V8X3+Q5V8Y6). The note with it: read-out: KM of primer, vPol, 0.5 mM NTPs, 0.15 μM template v3΄ 1–18, 0.25 μM polymerase, T = 24°C.
Data set [2] addresses influenza B polymerase initiating RNA synthesis at the cRNA promoter (cPol) (Influenza B virus, UniProt Q5V8Y6). Nature of the data set: biochemical. It is filed as biochemical, influenza B/Memphis/13/03.
The target in another data set is Cy3-labelled v3΄ nt 1–18. Nature of the data set: FRET assay of RNA-RNA interaction with v3΄ nt 1–18. Format: binding. The note with it: FAM-labelled 5΄ RNA, T = 25°C. The procedure: (§1) RNA–RNA interactions were quantified by a simple FRET-assay. Briefly, ∼0.01 μM short 5΄ RNAs labelled at their 3΄ ends by FAM-Ex-5 were incubated at T = 25°C in 384 well plates (FIA plate black, 128.0/85 mm, medium binding; Greiner Bio-One GmbH, Austria) in binding buffer (50 mM HEPES/NaOH, 0.15 M NaCl, 10% (v/v) glycerol, 2 mM Tris(2-carboxyethyl)phosphine (TCEP), pH 7.4) with 3΄ RNAs labelled at their 5΄ end by Cy3 at the concentrations indicated. After attaining equilibrium (∼0.5 h), the FAM's fluorescence intensity was recorded as averaged technical triplicates (excitation / emission = 485/520 nm; 10 nm band width; CLARIOstar, BMG Labtech, Germany). The decreasing fluorescence intensity with increasing Cy3-labelled 3΄ RNA is plotted relative to its initial value as mean values of at least duplicate experiments with the standard deviation indicated. Mean values were then analysed according to Equation (2) (with P equaling the concentration of Cy3-labelled 3΄ RNA; curve fitting yielded L = 0.007 μM and 0.004 μM for FAM-Ex-5-labelled c5΄ and v5΄ nts 1–18, respectively), yielding the corresponding dissociation constants and error of the fitting routine stated. 0.2 μM FAM-Ex-5-labelled v5΄ nt 1–10 were used to study its weak interaction with either Cy3-labelled v3΄ nt 1–9 or v3΄ nt 1–18.

Data set [3] addresses Cy3-labelled c3΄ RNA (18-mer). Nature of the data set: FRET assay of RNA-RNA interaction with c3΄ RNA. It is filed as binding. The note with it: FAM-labelled 5΄ RNA, T = 25°C. How it is done:
as §1

Data set [4] has as its target T1, influenza B polymerase initiating RNA synthesis at the vRNA promoter (vPol). Nature of the data set: biochemical. The settings on record: IC50 (mM).
Data set [5] concerns the target influenza B polymerase, vPol (c5' hook) (Influenza B virus, UniProt Q5V8Y6). Nature of the data set: biochemical. Set-up: species or system influenza B/Memphis/13/03.
Another data set relates to influenza polymerase. The arrangement: method as in PMID 8585725. The settings on record: in vitro and cell culture experiments; cited from earlier work.
[6] abbreviates: 0.025 mM NTPs, capped RNA primed, T ∼ 21°C, t = 176 or 100 min, read-out: IC50 (mM), cPol.
The mark [7] stands for this setting: 0.25 mM NTPs, capped RNA primed, T ∼ 21°C, t = 15 or 10 min, read-out: IC50 (mM), cPol.
The mark [8] stands for this setting: 0.025 mM NTPs, capped RNA primed, T ∼ 21°C, t = 5 min.
Where [9] appears, read: 0.25 mM NTPs, capped RNA primed, T ∼ 21°C, t = 5 min.
The mark [10] stands for this setting: 0.025 mM NTPs, capped RNA primed, T ∼ 21°C, t = 5 min, not duplicate, read-out: IC50 (mM), vPol (c5' hook).

Several values for one entry are separate records, joined by “and”; a condition that tells them apart may be missing. Equal values may be shown once. Read-outs that look alike come from different tables or passages of the source. Some results are limits rather than exact numbers.

“5΄-UAUACCUCUGCUUCUGCU-3΄ (chemistry not given here) [v3', genomic vRNA 3΄ end, 18 nucleotides]”: the “dissociation constant, polymerase + RNA (in words)” value (from here on “dissociation constant”) in the data set with influenza B polymerase was “low nanomolar range”.

As usually defined, the Km is the concentration of substrate that gives half-maximal velocity. For the molecule 5΄-m^7GpppAAUCUAUAAUAG-3΄ [capped RNA], the Km in data set [1] came to 0.027 ± 0.01 µM; in data set [2] (0.5 mM NTPs, 0.15 μM template c3΄ 1–18, 0.25 μM polymerase, T = 24°C, read-out: KM (capped RNA), cPol) it was 0.12 ± 0.03 µM.

In the case of 5΄-pAGUAGUAACAAGAG-3΄ [non-capped RNA], the Km was 1.1 ± 0.2 µM in data set [1] and around 1 µM in data set [1] (listed as v5′ 1-14).

In the case of “5′-UACCCUCUUGUUACUACU-3′ (chemistry not given here) [c3', anti-genomic cRNA 3΄ end, 18 nucleotides]”, in the data set with influenza B polymerase, the “dissociation constant” value is recorded as “low nanomolar range”.

By Kd is commonly meant a measure of binding affinity in units of concentration. As to 5′-pAGCAGAAGCAGAGGUAUA-3′ [c5'], the equilibrium dissociation constant (Kd) was 0.03 nM at Cy3-labelled v3΄ nt 1–18; around 0.03 nM at Cy3-labelled v3΄ nt 1–18 (listed as c5΄); below 0.01 µM at influenza B polymerase (fluorescently labelled RNA, binding buffer pH 7.4, read-out: KD, polymerase + promoter RNA); 0.0016 ± 0.0003 µM in data set [3]; around 0.0016 µM in data set [3] (listed as c5΄). In addition, the “dissociation constant” value on influenza B polymerase is on record as “low nanomolar range”.

One may read the IC50 as the point on the concentration scale where inhibition reaches its midpoint. Regarding `Nc1ncnc2c1ncn2[C@@H]1O[C@H](COP(=O)(O)OP(=O)(O)OP(=O)(O)O)[C@@H](O)[C@H]1F` [2'F-2'dATP], the IC50 came out at 0.7 mM in data set [2] (setting [6]); 0.38 mM in data set [2] (setting [7]); 0.03 mM in data set [4] (setting [8]); 0.3 mM in data set [4] (setting [9]); 0.03 mM in data set [5] (setting [10]).

Regarding `Nc1ccn([C@@H]2O[C@H](COP(=O)(O)OP(=O)(O)OP(=O)(O)O)[C@@H](O)[C@H]2F)c(=O)n1` [2'F-2'dCTP], the IC50 in data set [2] (IC50 (mM), cPol) was 1.5 mM and 2.1 mM; in data set [4], 0.21 mM and 1.4 mM; in data set [5], 0.1 mM.

Turning to `Nc1nc2c(ncn2[C@@H]2O[C@H](COP(=O)(O)OP(=O)(O)OP(=O)(O)O)[C@@H](O)[C@H]2F)c(=O)[nH]1` [2'F-2'dGTP], the IC50 in data set [2] (setting [6]) amounted to 0.28 mM; in data set [2] (setting [7]), 0.43 mM; in data set [4] (setting [8]), 0.02 mM; in data set [4] (setting [9]), 0.2 mM; in data set [5] (setting [10]) it was 0.01 mM. For the same molecule, the “mode of inhibition of influenza polymerase with respect to GTP” value in the data set with influenza polymerase was “reversibly and competitively”.

For `O=c1ccn([C@@H]2O[C@H](COP(=O)(O)OP(=O)(O)OP(=O)(O)O)[C@@H](O)[C@H]2F)c(=O)[nH]1` [2'F-2'dUTP], the IC50 in data set [2] (IC50 (mM), cPol) was 1.1 mM and 1.8 mM; in data set [4] it was 0.45 mM and 3.1 mM; in data set [5], 0.3 mM.
